# From patent publication US6579855B1, “Adenovirus-mediated gene therapy” (priority 1998, dated 2003)
# Assay: Clinical safety of gene transfer and GCV treatment (adverse effects, routine laboratory measurements)
# Assay type: in vivo, human
# Conditions: GCV 5 mg/kg/d intravenously, 14 days; only one patient, without symptoms
# Protocol: All patients underwent craniotomy and tumour resection. The resection was as radical as possible under the microscope. The diagnosis of malignant glioma was confirmed by frozen sections at the time of the operation. After tumour resection, HSVtk retrovirus packaging cells (10^9 cells/10 ml) or adenoviruses (3×10^10 pfu/10 ml) were injected into the wall of the tumour cavity in 0.1-0.3 ml quantities, 10 mm deep, with 30-70 injections/patient. GCV treatment (5 mg/kg/d) was delivered intravenously through the subclavian vein twice a day for 14 days. The medication started 14 days or 5 days after the tumour resection and gene transfer in retrovirus or adenovirus patients, respectively. β-galactosidase gene was transferred to seven control group patients via a catheter which was stereotactically inserted into the tumour. The catheter was left in place until the tumour was resected in craniotomy. […]
# Blood and urine samples were analyzed using routine methods before gene transfer, on the first postoperative day and weekly during hospitalization except for leucocyte differential count which was measured every second day during GCV medication. Anti-virus antibodies were measured before and two weeks after the gene transfer. […]
smiles,measurement,value
"Nc1nc(O)c2ncn(COC(CO)CO)c2n1 [GCV, ganciclovir]",leukopenia during GCV treatment,mild and reversible leukopenia
